This experiment has as its system porcine coronary smooth muscles. Kind of experiment: Assay of constrictor suppressing activity on porcine coronary smooth muscles (antagonism of endothelin-1 constriction). The class given is cell-based. The following applies: for pA₂: antagonistic activity on constriction by endothelin-1 given cumulatively about 15 minutes after the compound, negative logarithm of molar concentration of antagonist shifting the dose response curve by a factor of 2; for Relative potency: antagonistic activity on the constriction of porcine coronary smooth muscles, Example 1 = 100. On the procedure: • (1) Assay of Constrictor Suppressing Activity on Porcine Coronary Smooth Muscles Spiral strips 2 mm x 15 mm prepared from the coronary right ramus circumflexus from which the adventitial connective tissues and the endothelial cells were removed were set to 4 ml organ baths. The tension of each strip was detected by a force displacement transducer UL-10GR (Minebea), and recorded by a polygraph (NEC Sanei). The organ baths were maintained at 37°C, and filled with a Krebs-Henseleit solution (composition: 118 mM NaCl, 4.7 mM KCl, 2.5 mM CaCl₂, 1.2 mM KH₂PO₄, 25.0 mM NaHCO₃, 1.2 mM MgSO₄, 10.0 mM glucose) gassed with 95% O₂ and 5% CO₂. A tension of 1.25 to 1.5 g was applied to each of the strips, followed by equilibration for 1.5 hours. 60 mM KCl was repeatedly applied thereto at intervals of 30 minutes until the constriction response became constant. After additional equilibration for 1.5 hours, a sample for assay was given thereto. The constriction of the strips was normalized by the constriction response of the individual strips to 60 mM KCl and statistically processed. The suppressing activity was determined as a pA₂ value by giving endothelin-1 cumulatively about 15 minutes after the compound having a predetermined concentration was given, and comparing the constriction thereof with that of a control sample in which only endothelin-1 was given. […] Such a case has not been reported yet. […] The affinity for the receptor was assayed by the following method.

Bridge positions count the residues as written; N and C are the ends. Peptide text beside a SMILES is read from it.

On to `CC[C@H](C)[C@H](NC(=O)[C@H](CC(C)C)NC(=O)[C@@H](NC(=O)[C@H](CC(C)C)NC(=O)[C@H](Cc1c[nH]cn1)NC(=O)[C@@H]1CSSC[C@H](N)C(=O)N[C@@H](CO)C(=O)N[C@H]2CSSC[C@H](NC(=O)[C@H](CCC(=O)O)NC(=O)[C@H](CCCCN)NC(=O)[C@H](CC(=O)O)NC(=O)[C@H](CCSC)NC(=O)[C@H](C)NC(=O)[C@H](CO)NC(=O)[C@H](CO)NC2=O)C(=O)N[C@@H](C(C)C)C(=O)N[C@@H](Cc2ccc(O)cc2)C(=O)N[C@@H](Cc2ccccc2)C(=O)N1)[C@@H](C)O)C(=O)N[C@@H](Cc1c[nH]c2ccccc12)C(=O)O` [Example 15, [Ala⁶, Thr¹⁸, Leu¹⁹]-ET-1] (H-CSCSSAMDKECVYFCHLTLIW-OH; disulfide 1-15, 3-11), for which the pA₂ is 6.5 and the Relative potency amounted to 6.

As to `CC[C@H](C)[C@H](NC(=O)[C@H](CC(C)C)NC(=O)[C@@H](NC(=O)[C@H](CC(C)C)NC(=O)[C@H](Cc1c[nH]cn1)NC(=O)[C@@H]1CSSC[C@H](N)C(=O)N[C@@H](CO)C(=O)N[C@H]2CSSC[C@H](NC(=O)[C@H](CCC(=O)O)NC(=O)[C@H](CCCCN)NC(=O)[C@H](CC(=O)O)NC(=O)[C@H](C)NC(=O)[C@H](CC(C)C)NC(=O)[C@H](CO)NC(=O)[C@H](CO)NC2=O)C(=O)N[C@@H](C(C)C)C(=O)N[C@@H](Cc2ccc(O)cc2)C(=O)N[C@@H](Cc2ccccc2)C(=O)N1)[C@@H](C)O)C(=O)N[C@@H](Cc1c[nH]c2ccccc12)C(=O)O` [Example 16, [Ala⁷, Thr¹⁸, Leu¹⁹]-ET-1] (H-CSCSSLADKECVYFCHLTLIW-OH; disulfide 1-15, 3-11), the pA₂ was 7.2 and the Relative potency came out at 32.

The record behind these values is patent publication EP0547317A1, “Endothelin antagonists” (TAKEDA CHEMICAL INDUSTRIES, LTD., priority 1991, dated 1993).
